Source: PubChem BioAssay (NCI)
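Tested at 5 concentrations; 48 h exposure; 96-well plates; endpoints linearly interpolated, else capped at highest concentration. At the TGI there is no net growth.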

system: NCI-H522 lung; test: growth of human tumour cells (NCI), 48 h

| SMILES | TGI [µM] |
| --- | --- |
| O=CC[C@H]1C(=O)C[C@@H]2CCC[C@@H]21 | > 100 |
| O=[N+]([O-])C(=C1NCCN1)/C(Cl)=C(\Cl)Br | 44.6 |
| COc1cc(/C=C/C(=N\NS(=O)(=O)c2ccc(C)cc2)c2sc(NNC(C)=O)nc2C)ccc1O | > 100 |
| Clc1cc(OC2C3CC4CC(C3)CC2C4)nc(Cl)n1 (stereo not given) | 27.1 |
| CC(C)CC(=O)OC[n+]1ccc(-c2c(COC(=O)NC(C)C)c(COC(=O)NC(C)C)c3n2CCC3)cc1 | > 100 |

system: UO-31 renal; test: growth of human tumour cells (NCI), 48 h

| SMILES | TGI [µM] |
| --- | --- |
| CN(C)C(=N)c1ccccc1 | > 100 |
| O=[N+]([O-])C(=C1NCCN1)/C(Cl)=C(\Cl)Br | > 100 |
| COc1cc(/C=C/C(=N\NS(=O)(=O)c2ccc(C)cc2)c2sc(NNC(C)=O)nc2C)ccc1O | > 100 |
| Clc1cc(OC2C3CC4CC(C3)CC2C4)nc(Cl)n1 (stereo not given) | 10.8 |
| CC(=O)NNc1nc(C)c(C(=O)NNC(=O)C(=O)Nc2c(Cl)cc([N+](=O)[O-])cc2Cl)s1 | 87.1 |
| CC(C)CC(=O)OC[n+]1ccc(-c2c(COC(=O)NC(C)C)c(COC(=O)NC(C)C)c3n2CCC3)cc1 | > 100 |

system: UACC-62 melanoma; test: growth of human tumour cells (NCI), 48 h

| SMILES | TGI [µM] |
| --- | --- |
| O=CC[C@H]1C(=O)C[C@@H]2CCC[C@@H]21 | > 100 |
| O=[N+]([O-])C(=C1NCCN1)/C(Cl)=C(\Cl)Br | > 100 |
| COc1cc(/C=C/C(=N\NS(=O)(=O)c2ccc(C)cc2)c2sc(NNC(C)=O)nc2C)ccc1O | > 100 |
| Clc1cc(OC2C3CC4CC(C3)CC2C4)nc(Cl)n1 (stereo not given) | 24.7 |
| CC(=O)NNc1nc(C)c(C(=O)NNC(=O)C(=O)Nc2c(Cl)cc([N+](=O)[O-])cc2Cl)s1 | 86.2 |
| CC(C)CC(=O)OC[n+]1ccc(-c2c(COC(=O)NC(C)C)c(COC(=O)NC(C)C)c3n2CCC3)cc1 | > 100 |

system: T-47D breast; test: growth of human tumour cells (NCI), 48 h

| SMILES | TGI [µM] |
| --- | --- |
| O=[N+]([O-])C(=C1NCCN1)/C(Cl)=C(\Cl)Br | 40.6 |
| COc1cc(/C=C/C(=N\NS(=O)(=O)c2ccc(C)cc2)c2sc(NNC(C)=O)nc2C)ccc1O | > 100 |
| Clc1cc(OC2C3CC4CC(C3)CC2C4)nc(Cl)n1 (stereo not given) | 53.4 |
| CC(C)CC(=O)OC[n+]1ccc(-c2c(COC(=O)NC(C)C)c(COC(=O)NC(C)C)c3n2CCC3)cc1 | > 100 |

system: SNB-78 CNS; test: growth of human tumour cells (NCI), 48 h

| SMILES | TGI [µM] |
| --- | --- |
| CN(C)C(=N)c1ccccc1 | > 100 |
| O=CC[C@H]1C(=O)C[C@@H]2CCC[C@@H]21 | > 100 |
| CC(=O)NNc1nc(C)c(C(=O)NNC(=O)C(=O)Nc2c(Cl)cc([N+](=O)[O-])cc2Cl)s1 | > 100 |

system: K-562 leukemia; test: growth of human tumour cells (NCI), 48 h

| SMILES | TGI [µM] |
| --- | --- |
| O=CC[C@H]1C(=O)C[C@@H]2CCC[C@@H]21 | > 100 |
| O=[N+]([O-])C(=C1NCCN1)/C(Cl)=C(\Cl)Br | 31.2 |
| Clc1cc(OC2C3CC4CC(C3)CC2C4)nc(Cl)n1 (stereo not given) | 24.1 |
| CC(=O)NNc1nc(C)c(C(=O)NNC(=O)C(=O)Nc2c(Cl)cc([N+](=O)[O-])cc2Cl)s1 | > 100 |
| CC(C)CC(=O)OC[n+]1ccc(-c2c(COC(=O)NC(C)C)c(COC(=O)NC(C)C)c3n2CCC3)cc1 | > 100 |

system: U251 CNS; test: growth of human tumour cells (NCI), 48 h

| SMILES | TGI [µM] |
| --- | --- |
| CN(C)C(=N)c1ccccc1 | > 100 |
| O=CC[C@H]1C(=O)C[C@@H]2CCC[C@@H]21 | > 100 |
| O=[N+]([O-])C(=C1NCCN1)/C(Cl)=C(\Cl)Br | > 100 |
| COc1cc(/C=C/C(=N\NS(=O)(=O)c2ccc(C)cc2)c2sc(NNC(C)=O)nc2C)ccc1O | > 100 |
| Clc1cc(OC2C3CC4CC(C3)CC2C4)nc(Cl)n1 (stereo not given) | 31.9 |
| CC(=O)NNc1nc(C)c(C(=O)NNC(=O)C(=O)Nc2c(Cl)cc([N+](=O)[O-])cc2Cl)s1 | > 100 |
| CC(C)CC(=O)OC[n+]1ccc(-c2c(COC(=O)NC(C)C)c(COC(=O)NC(C)C)c3n2CCC3)cc1 | > 100 |

system: SNB-75 CNS; test: growth of human tumour cells (NCI), 48 h

| SMILES | TGI [µM] |
| --- | --- |
| CN(C)C(=N)c1ccccc1 | > 100 |
| O=CC[C@H]1C(=O)C[C@@H]2CCC[C@@H]21 | > 100 |
| O=[N+]([O-])C(=C1NCCN1)/C(Cl)=C(\Cl)Br | > 86.3 |
| COc1cc(/C=C/C(=N\NS(=O)(=O)c2ccc(C)cc2)c2sc(NNC(C)=O)nc2C)ccc1O | > 100 |
| Clc1cc(OC2C3CC4CC(C3)CC2C4)nc(Cl)n1 (stereo not given) | 86.7 |
| CC(C)CC(=O)OC[n+]1ccc(-c2c(COC(=O)NC(C)C)c(COC(=O)NC(C)C)c3n2CCC3)cc1 | > 100 |

system: NCI-H23 lung; test: growth of human tumour cells (NCI), 48 h

| SMILES | TGI [µM] |
| --- | --- |
| CN(C)C(=N)c1ccccc1 | > 100 |
| O=CC[C@H]1C(=O)C[C@@H]2CCC[C@@H]21 | > 100 |
| O=[N+]([O-])C(=C1NCCN1)/C(Cl)=C(\Cl)Br | > 69.6 |
| COc1cc(/C=C/C(=N\NS(=O)(=O)c2ccc(C)cc2)c2sc(NNC(C)=O)nc2C)ccc1O | > 100 |
| Clc1cc(OC2C3CC4CC(C3)CC2C4)nc(Cl)n1 (stereo not given) | 31 |
| CC(=O)NNc1nc(C)c(C(=O)NNC(=O)C(=O)Nc2c(Cl)cc([N+](=O)[O-])cc2Cl)s1 | 36.7 |
| CC(C)CC(=O)OC[n+]1ccc(-c2c(COC(=O)NC(C)C)c(COC(=O)NC(C)C)c3n2CCC3)cc1 | > 100 |

system: MDA-MB-231 breast; test: growth of human tumour cells (NCI), 48 h

| SMILES | TGI [µM] |
| --- | --- |
| O=[N+]([O-])C(=C1NCCN1)/C(Cl)=C(\Cl)Br | > 100 |
| COc1cc(/C=C/C(=N\NS(=O)(=O)c2ccc(C)cc2)c2sc(NNC(C)=O)nc2C)ccc1O | > 100 |
| Clc1cc(OC2C3CC4CC(C3)CC2C4)nc(Cl)n1 (stereo not given) | 27.5 |
| CC(C)CC(=O)OC[n+]1ccc(-c2c(COC(=O)NC(C)C)c(COC(=O)NC(C)C)c3n2CCC3)cc1 | > 100 |

system: SF-295 CNS; test: growth of human tumour cells (NCI), 48 h

| SMILES | TGI [µM] |
| --- | --- |
| CN(C)C(=N)c1ccccc1 | > 100 |
| O=CC[C@H]1C(=O)C[C@@H]2CCC[C@@H]21 | > 100 |
| O=[N+]([O-])C(=C1NCCN1)/C(Cl)=C(\Cl)Br | > 100 |
| COc1cc(/C=C/C(=N\NS(=O)(=O)c2ccc(C)cc2)c2sc(NNC(C)=O)nc2C)ccc1O | > 100 |
| Clc1cc(OC2C3CC4CC(C3)CC2C4)nc(Cl)n1 (stereo not given) | 37.7 |
| CC(=O)NNc1nc(C)c(C(=O)NNC(=O)C(=O)Nc2c(Cl)cc([N+](=O)[O-])cc2Cl)s1 | > 100 |
| CC(C)CC(=O)OC[n+]1ccc(-c2c(COC(=O)NC(C)C)c(COC(=O)NC(C)C)c3n2CCC3)cc1 | > 100 |

system: LOX IMVI melanoma; test: growth of human tumour cells (NCI), 48 h

| SMILES | TGI [µM] |
| --- | --- |
| CN(C)C(=N)c1ccccc1 | > 100 |
| O=[N+]([O-])C(=C1NCCN1)/C(Cl)=C(\Cl)Br | 33.4 |
| COc1cc(/C=C/C(=N\NS(=O)(=O)c2ccc(C)cc2)c2sc(NNC(C)=O)nc2C)ccc1O | > 100 |
| Clc1cc(OC2C3CC4CC(C3)CC2C4)nc(Cl)n1 (stereo not given) | 14.4 |
| CC(=O)NNc1nc(C)c(C(=O)NNC(=O)C(=O)Nc2c(Cl)cc([N+](=O)[O-])cc2Cl)s1 | > 100 |
| CC(C)CC(=O)OC[n+]1ccc(-c2c(COC(=O)NC(C)C)c(COC(=O)NC(C)C)c3n2CCC3)cc1 | > 100 |

system: SK-MEL-28 melanoma; test: growth of human tumour cells (NCI), 48 h

| SMILES | TGI [µM] |
| --- | --- |
| CN(C)C(=N)c1ccccc1 | > 100 |
| O=CC[C@H]1C(=O)C[C@@H]2CCC[C@@H]21 | > 100 |
| O=[N+]([O-])C(=C1NCCN1)/C(Cl)=C(\Cl)Br | > 77.7 |
| COc1cc(/C=C/C(=N\NS(=O)(=O)c2ccc(C)cc2)c2sc(NNC(C)=O)nc2C)ccc1O | > 100 |
| Clc1cc(OC2C3CC4CC(C3)CC2C4)nc(Cl)n1 (stereo not given) | 29.1 |
| CC(=O)NNc1nc(C)c(C(=O)NNC(=O)C(=O)Nc2c(Cl)cc([N+](=O)[O-])cc2Cl)s1 | 69.8 |
| CC(C)CC(=O)OC[n+]1ccc(-c2c(COC(=O)NC(C)C)c(COC(=O)NC(C)C)c3n2CCC3)cc1 | > 100 |

system: DMS 114 small cell lung; test: growth of human tumour cells (NCI), 48 h

| SMILES | TGI [µM] |
| --- | --- |
| CN(C)C(=N)c1ccccc1 | > 100 |
| CC(=O)NNc1nc(C)c(C(=O)NNC(=O)C(=O)Nc2c(Cl)cc([N+](=O)[O-])cc2Cl)s1 | 94.9 |

system: SN12C renal; test: growth of human tumour cells (NCI), 48 h

| SMILES | TGI [µM] |
| --- | --- |
| CN(C)C(=N)c1ccccc1 | > 100 |
| O=CC[C@H]1C(=O)C[C@@H]2CCC[C@@H]21 | > 100 |
| O=[N+]([O-])C(=C1NCCN1)/C(Cl)=C(\Cl)Br | > 100 |
| COc1cc(/C=C/C(=N\NS(=O)(=O)c2ccc(C)cc2)c2sc(NNC(C)=O)nc2C)ccc1O | > 100 |
| Clc1cc(OC2C3CC4CC(C3)CC2C4)nc(Cl)n1 (stereo not given) | 31 |
| CC(=O)NNc1nc(C)c(C(=O)NNC(=O)C(=O)Nc2c(Cl)cc([N+](=O)[O-])cc2Cl)s1 | > 100 |
| CC(C)CC(=O)OC[n+]1ccc(-c2c(COC(=O)NC(C)C)c(COC(=O)NC(C)C)c3n2CCC3)cc1 | > 100 |

system: HCT-15 colon; test: growth of human tumour cells (NCI), 48 h

| SMILES | TGI [µM] |
| --- | --- |
| O=CC[C@H]1C(=O)C[C@@H]2CCC[C@@H]21 | > 100 |
| O=[N+]([O-])C(=C1NCCN1)/C(Cl)=C(\Cl)Br | 7.93 |
| COc1cc(/C=C/C(=N\NS(=O)(=O)c2ccc(C)cc2)c2sc(NNC(C)=O)nc2C)ccc1O | > 100 |
| Clc1cc(OC2C3CC4CC(C3)CC2C4)nc(Cl)n1 (stereo not given) | 33.3 |
| CC(=O)NNc1nc(C)c(C(=O)NNC(=O)C(=O)Nc2c(Cl)cc([N+](=O)[O-])cc2Cl)s1 | > 100 |
| CC(C)CC(=O)OC[n+]1ccc(-c2c(COC(=O)NC(C)C)c(COC(=O)NC(C)C)c3n2CCC3)cc1 | > 100 |

system: HOP-92 NSCLC; test: growth of human tumour cells (NCI), 48 h

| SMILES | TGI [µM] |
| --- | --- |
| CN(C)C(=N)c1ccccc1 | > 100 |
| O=CC[C@H]1C(=O)C[C@@H]2CCC[C@@H]21 | > 100 |
| O=[N+]([O-])C(=C1NCCN1)/C(Cl)=C(\Cl)Br | > 62.2 |
| COc1cc(/C=C/C(=N\NS(=O)(=O)c2ccc(C)cc2)c2sc(NNC(C)=O)nc2C)ccc1O | > 100 |
| Clc1cc(OC2C3CC4CC(C3)CC2C4)nc(Cl)n1 (stereo not given) | 3.41 |
| CC(=O)NNc1nc(C)c(C(=O)NNC(=O)C(=O)Nc2c(Cl)cc([N+](=O)[O-])cc2Cl)s1 | 56.2 |
| CC(C)CC(=O)OC[n+]1ccc(-c2c(COC(=O)NC(C)C)c(COC(=O)NC(C)C)c3n2CCC3)cc1 | > 100 |
